The term Km denotes the concentration of substrate that gives half-maximal velocity.

Two molecules from article PMC3854609, “Biosynthesis of Sandalwood Oil: Santalum album CYP76F Cytochromes P450 Produce Santalols and Bergamotol” (PLoS ONE, 2013) can be followed below.

The structures appear in SMILES notation. Positions count from the first letter of the chain named.

Common to all, as to test: GCMS product formation, yeast microsomes
Holding throughout (assay type): biochemical

One experiment concerns the target T1, SaCYP76F41 (Santalum album, UniProt V5RFE4).
T1 construct: gene CYP76F41; full-length cDNA in pYEDP60, yeast BY4741 microsomes, co-expressed with S. album CPR2 (KC842188)
T1 sequence (V5RFE4 1-509): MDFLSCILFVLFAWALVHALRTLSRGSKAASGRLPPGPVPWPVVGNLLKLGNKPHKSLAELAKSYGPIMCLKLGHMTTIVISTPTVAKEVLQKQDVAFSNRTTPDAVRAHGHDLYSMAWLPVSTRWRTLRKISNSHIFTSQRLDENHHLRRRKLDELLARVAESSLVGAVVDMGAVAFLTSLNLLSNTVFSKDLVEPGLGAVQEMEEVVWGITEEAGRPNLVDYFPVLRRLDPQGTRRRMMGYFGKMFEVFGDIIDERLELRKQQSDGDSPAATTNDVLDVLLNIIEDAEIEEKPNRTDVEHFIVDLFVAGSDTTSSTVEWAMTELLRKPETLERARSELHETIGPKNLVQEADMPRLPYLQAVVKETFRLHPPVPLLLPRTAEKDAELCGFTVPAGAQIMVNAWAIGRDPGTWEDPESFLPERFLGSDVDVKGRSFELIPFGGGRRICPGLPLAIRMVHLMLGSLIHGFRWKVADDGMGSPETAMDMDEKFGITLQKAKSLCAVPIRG
As to conditions: substrate in mixture of santalenes and α-exo-bergamotene, 40 µM, NADPH 0.8 mM, pH 7.5, 30°C, 2 h, with SaCPR.

A further experiment concerns the target T2, SaCYP76F37v1 (Santalum album, UniProt V5RGC8).
T2 construct: gene CYP76F37v1; full-length cDNA in pYEDP60, yeast BY4741 microsomes, co-expressed with S. album CPR2 (KC842188)
As to conditions: NADPH 0.8 mM; potassium phosphate pH 7.5; 30°C; 20 min; with SaCPR; TLC-enriched substrate; read-out: apparent Km.

In a further experiment the target is T3, SaCYP76F39v2 (Santalum album, UniProt V5RGD0).
T3 construct: gene CYP76F39v2; full-length cDNA in pYEDP60, yeast BY4741 microsomes, co-expressed with S. album CPR2 (KC842188)
T3 sequence (V5RGD0 1-509): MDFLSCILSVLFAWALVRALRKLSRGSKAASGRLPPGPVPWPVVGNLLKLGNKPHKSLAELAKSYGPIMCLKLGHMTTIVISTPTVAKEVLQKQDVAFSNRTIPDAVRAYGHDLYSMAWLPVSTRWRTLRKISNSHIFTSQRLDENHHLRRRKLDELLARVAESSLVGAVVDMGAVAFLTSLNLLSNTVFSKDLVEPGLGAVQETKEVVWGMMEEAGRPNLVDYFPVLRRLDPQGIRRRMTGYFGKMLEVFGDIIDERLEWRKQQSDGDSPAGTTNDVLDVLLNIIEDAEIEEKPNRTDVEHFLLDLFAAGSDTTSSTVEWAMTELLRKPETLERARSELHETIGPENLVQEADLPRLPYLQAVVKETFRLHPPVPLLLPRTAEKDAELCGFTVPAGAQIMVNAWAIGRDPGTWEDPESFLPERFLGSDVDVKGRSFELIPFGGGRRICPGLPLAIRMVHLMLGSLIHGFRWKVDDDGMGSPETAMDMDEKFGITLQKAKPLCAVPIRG
The conditions noted are these: substrate in mixture of santalenes and α-exo-bergamotene, 40 µM, NADPH 0.8 mM, pH 7.5, 30°C, 2 h, with SaCPR.

A further experiment has as its target T4, SaCYP76F39v1 (Santalum album, UniProt V5RH69).
T4 construct: gene CYP76F39v1; full-length cDNA in pYEDP60, yeast BY4741 microsomes, co-expressed with S. album CPR2 (KC842188)
T4 sequence (V5RH69 1-509): T3 sequence (V5RGD0 1-509) with S9F, R21P, K22T, I103T, Y110H
As to conditions: NADPH 0.8 mM; potassium phosphate pH 7.5; 30°C; 20 min; with SaCPR; TLC-enriched substrate; read-out: apparent Km.

[1] abbreviates: products (Z)- and (E)-β-santalol.
Where [2] appears, read: products (Z)- and (E)-α-santalol.

T2 sequence (V5RGC8 1-509): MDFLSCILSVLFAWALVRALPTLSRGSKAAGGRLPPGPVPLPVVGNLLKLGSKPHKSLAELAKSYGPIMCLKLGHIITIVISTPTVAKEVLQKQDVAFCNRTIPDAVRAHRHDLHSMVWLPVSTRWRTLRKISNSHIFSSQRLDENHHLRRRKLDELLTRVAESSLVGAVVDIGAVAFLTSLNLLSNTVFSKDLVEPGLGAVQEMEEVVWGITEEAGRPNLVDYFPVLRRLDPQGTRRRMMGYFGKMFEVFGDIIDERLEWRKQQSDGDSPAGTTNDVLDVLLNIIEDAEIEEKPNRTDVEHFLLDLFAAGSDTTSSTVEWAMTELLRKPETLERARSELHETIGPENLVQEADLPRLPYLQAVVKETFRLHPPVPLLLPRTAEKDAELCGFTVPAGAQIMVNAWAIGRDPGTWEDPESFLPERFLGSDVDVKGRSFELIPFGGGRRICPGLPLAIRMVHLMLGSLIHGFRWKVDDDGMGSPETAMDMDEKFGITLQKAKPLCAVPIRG

As to `C=C1[C@@H]2CC[C@@H](C2)[C@@]1(C)CCC=C(C)C` [compound 4, β-santalene], the “GCMS product formation, yeast microsomes” value on SaCYP76F41 (setting [1]) and at SaCYP76F39v2 (setting [1]) was “gave product profiles similar to that observed with CYP76F39v1” in each case. The Michaelis constant (Km) on SaCYP76F37v1 was 157 µM; at SaCYP76F39v1, 34.8 µM.

On to `CC(C)=CCCC1(C)C2CC3C(C2)C31C` (stereo not drawn) [compound 1, α-santalene], for which the “GCMS product formation, yeast microsomes” value on SaCYP76F41 (setting [2]) and on SaCYP76F39v2 (setting [2]) was “gave product profiles similar to that observed with CYP76F39v1” throughout.
